Where two headings read alike, the source gives them in different places. Numbered stars: 1 amine (or outer) side, 2 acyl side, 3 side chain; on linkers, the order of the positions; unused ones are H or OH. Square brackets hold non-standard residues; d marks the D form. Peptide text beside a SMILES is read from it. * marks the point of attachment. 5FAM = O=C1OC2(c3ccc(O)cc3Oc3cc(O)ccc32)c2ccc(C(=O)*)cc21; NHCH2C6H4(4-CH2CONH2) = NC(=O)Cc1ccc(CN*)cc1; X1 = O=C(Cc1ccc(CN[*:1])cc1)[*:2]
What was measured:
cRaf/K-Ras (G12V) PPI = biological target: T1, cRaf/K-Ras (G12V) PPI (Homo sapiens, UniProt P01116, G12V); assay: K-Ras-cRaf HTRF-based PPI profiling; assay type: biochemical; conditions: for blank corrected HTRF: raw data; for % Binding: relative to DMSO controls;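 for blank corrected HTRF: background is the signal of wells with all components except cRaf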
T1 construct: b-Kras G12V (GppNHp) (aa 2-169); biotin (b-
Experimental: In some experimental embodiments, a buffer was added to the assay wells which included […] HEPES pH 7.4, 150 mM NaCl, 5 mM MgCl2, 1 mM DTT, 0.005% NP40, and 1% DMSO. 5 uL of 3×K-Ras protein was then added to the assay wells, followed by the synthetic compounds which were added using acoustic technology (ECHO, Labcyte) followed by thirty minutes incubation at room temperature. Afterwards, 5 uL of 3×cRaf protein was added to the assay wells and 5 uL of detection mix was then added to the assay wells after 30 minutes. The detection mix included Mab anti-GST-Tb cryptate (Cisbio 61GSTTLB) and streptavidin-XL665 (Ex/Em=(337/665; 620) in PHERAstar (BMG Labtech)). HTRF signal was measured […] later.
The data includes raw data (signal-background without cRaf protein but with all other component), % binding (relative to DMSO controls), and curve fits. Curve fits were performed when the activities at the highest concentration of the synthetic compounds were less than 65%. Tables 18A-18B below includes the raw data (e.g., blank corrected HTRF) and Tables 19A-19B includes the % binding.

K-Ras = biological target: T2, K-Ras (Homo sapiens, UniProt P01116, G12V); assay: MST binding affinity of resynthesized NNP hits to K-Ras; conditions: read-out: KD (nM) [95% conf. int]; MST; NNP1 library hit; target K-Ras; one-site binding model
T2 construct: purchased Cytoskeleton Inc. CS-RS04
Experimental: Loading was performed according to the following protocol: The 200 μM stock solution of the target protein was diluted to 10 μM in 20 mM HEPES pH 8.0, 150 mM NaCl, 10 mM MgCl2, 1 mM TCEP, 0.05% Tween-20 (total volume 110 μL). 10 μL were set aside for later labeling quality control. EDTA pH 8.0 (stock concentration 10 mM) was added to the protein solution to a final concentration of 80 μM. GTP (stock concentration 50 mM) was added to the protein solution to a final concentration of 750 μM. The solution was incubated at 30° C. for 2 hours (PCR tube) and then placed on ice for 2 minutes. MgCl2 was added to the protein solution to a final concentration of 100 mM. The resulting protein solution was buffer exchanged into the buffer required in the labeling kit for labeling. […] All the other target molecules (TNFα, IL-6, IL-6R and ASGPR) were used as received without any additional treatment.
Hit binding affinity to various targets were determined using Microscale Thermophoresis (MST). MST experiments were performed on a Monolith NT.115pico (NanoTemper Technologies GmbH, Munich, Germany). Measurements were performed at room temperature, in triplicate with incubation periods of 15, 30 and 45 minutes. […] Targets were labeled using Nanotemper Monolith 2nd Generation Protein Labeling Kits. RED-MALEIMIDE (Maleimide-647-dye) labeling kit was used for K-Ras and RED-NHS (NHS-647-dye) labeling kit was used for IL-6, IL-6R, TNFα and ASGPR. The buffer for the ASGPR contained 20 mM HEPES pH 7.4, 150 mM NaCl, 10 mM MgCl2, 2 mM CaCl2, 0.05% Pluronic F-127, and 1 mM DTT; for IL-6 contained 20 mM HEPES pH 7.4, 150 mM KCl, 10 mM MgCl2, and 0.1% Pluronic F-127; for the soluble IL-6 receptor 20 mM HEPES pH 7.4, 150 mM NaCl, 10 mM MgCl2, and 0.05% Tween-20; for K-Ras 20 mM HEPES pH 7.4, 150 mM NaCl, 10 mM MgCl2, 0.05% Tween-20 and 1 mM DTT; for TNFα 10 mM HEPES pH 7.4, 150 mM NaCl, 10 mM MgCl2, 0.05% Polysorbate-20. Triplicate data was analyzed using MO.AffinityAnalysis software (NanoTemper Technologies GmbH).

Cn1cnc(Cn2ccc3ccc(CNCc4[nH]c5ccccc5c4[C@H]4NC(=O)c5ccc(O)cc54)cc32)c1 [BI-2852, reference compound]
IC50 (cRaf/K-Ras (G12V) PPI; 1% DMSO in reaction, compounds without fluorescein, 30 nM K-Ras G12V, 10 nM GST-cRaf, 30 min pre-incubation, read-out: K-Ras G12V Compound IC50): 1600 nM | IC50 (cRaf/K-Ras (G12V) PPI; 10-concentration IC50 mode, 3-fold serial dilution, K-Ras G12V 30 nM, GST-cRaf 10 nM, read-out: IC50): 1600 nM | HillSlope (cRaf/K-Ras (G12V) PPI; curve fit of % binding, K-Ras G12V 30 nM, GST-cRaf 10 nM): −0.5508 | blank corrected HTRF (cRaf/K-Ras (G12V) PPI; conc. 1.67E−05): 2409 | blank corrected HTRF (cRaf/K-Ras (G12V) PPI; conc. 1.85E−06): 6562 | blank corrected HTRF (cRaf/K-Ras (G12V) PPI; conc. 2.06E−07): 10050 | blank corrected HTRF (cRaf/K-Ras (G12V) PPI; conc. 2.29E−08): 12784 | blank corrected HTRF (cRaf/K-Ras (G12V) PPI; conc. 2.54E−09): 13013 | blank corrected HTRF (cRaf/K-Ras (G12V) PPI; conc. 5.00E−05): 2344 | blank corrected HTRF (cRaf/K-Ras (G12V) PPI; conc. 5.56E−06): 4849 | blank corrected HTRF (cRaf/K-Ras (G12V) PPI; conc. 6.17E−07): 8628 | blank corrected HTRF (cRaf/K-Ras (G12V) PPI; conc. 6.86E−08): 11886 | blank corrected HTRF (cRaf/K-Ras (G12V) PPI; conc. 7.62E−09): 13422 | % Binding (cRaf/K-Ras (G12V) PPI; conc. 1.67E−05): 17.36% | % Binding (cRaf/K-Ras (G12V) PPI; conc. 1.85E−06): 47.29% | % Binding (cRaf/K-Ras (G12V) PPI; conc. 2.06E−07): 72.42% | % Binding (cRaf/K-Ras (G12V) PPI; conc. 2.29E−08): 92.13% | % Binding (cRaf/K-Ras (G12V) PPI; conc. 2.54E−09): 93.78% | % Binding (cRaf/K-Ras (G12V) PPI; conc. 5.00E−05): 16.9% | % Binding (cRaf/K-Ras (G12V) PPI; conc. 5.56E−06): 34.94% | % Binding (cRaf/K-Ras (G12V) PPI; conc. 6.17E−07): 62.18% | % Binding (cRaf/K-Ras (G12V) PPI; conc. 6.86E−08): 85.66% | % Binding (cRaf/K-Ras (G12V) PPI; conc. 7.62E−09): 96.73%

CC(C)[C@H](NC(=O)[C@@H](Cc1ccc(O)cc1)NC(=O)[C@@H](Cc1c[nH]cn1)NC(=O)[C@H]1CCCN1C(=O)[C@@H](Cc1c[nH]c2ccccc12)NC(=O)c1ccc2c(c1)C(=O)OC21c2ccc(O)cc2Oc2cc(O)ccc21)C(=O)NCc1ccc(CC(=O)NCC(=O)N[C@@H](C(=O)N2CCC[C@@H]2C(=O)N[C@H](CCCNC(=N)N)C(=O)N[C@@H](C)C(=O)NCc2ccc(CC(=O)N3CCC[C@@H]3C(=O)N[C@H](CO)C(=O)N[C@H](CCC(=O)O)C(=O)N[C@H](CCCNC(=N)N)C(=O)NCC(=O)NCc3ccc(CC(=O)N4CCC[C@@H]4C(=O)N[C@H](CCCCN)C(=O)N[C@H](Cc4ccc(O)cc4)C(=O)N[C@H](CCCNC(=N)N)C(=O)N[C@@H](Cc4ccccc4)C(=O)NCc4ccc(CC(=O)N5CCC[C@@H]5C(=O)NCC(=O)N[C@H](CCCNC(=N)N)C(=O)N[C@H](Cc5c[nH]c6ccccc56)C(=O)NCC(=O)NCc5ccc(CC(=O)N[C@H](Cc6ccc(O)cc6)C(=O)N6CCC[C@@H]6C(=O)N[C@H](CCCNC(=N)N)C(=O)N[C@H](CCC(=O)O)C(=O)NCC(=O)NCc6ccc(CC(N)=O)cc6)cc5)cc4)cc3)cc2)C(C)C)cc1 [KRAS-1-2] (5FAM-[dW][dP][dH][dY]V[X1]G[dV][dP][dR]A[X1][dP][dS][dE][dR]G[X1][dP][dK][dY][dR]F[X1][dP]G[dR][dW]G[X1][dY][dP][dR][dE]G-{NHCH2C6H4(4-CH2CONH2)})
Kd (K-Ras): 49 nM

CC(C)C[C@@H](NC(=O)c1ccc2c(c1)C(=O)OC21c2ccc(O)cc2Oc2cc(O)ccc21)C(=O)N1CCC[C@@H]1C(=O)N[C@H](CCC(=O)O)C(=O)N[C@H](CO)C(=O)N[C@@H](Cc1ccccc1)C(=O)NCc1ccc(CC(=O)NCC(=O)N[C@@H](C(=O)N2CCC[C@@H]2C(=O)N[C@H](CCCNC(=N)N)C(=O)N[C@@H](C)C(=O)NCc2ccc(CC(=O)N3CCC[C@@H]3C(=O)N[C@H](CO)C(=O)N[C@H](CCC(=O)O)C(=O)N[C@H](CCCNC(=N)N)C(=O)NCC(=O)NCc3ccc(CC(=O)N4CCC[C@@H]4C(=O)N[C@H](CCCCN)C(=O)N[C@H](Cc4ccc(O)cc4)C(=O)N[C@H](CCCNC(=N)N)C(=O)N[C@@H](Cc4ccccc4)C(=O)NCc4ccc(CC(=O)N[C@H](CCCNC(=N)N)C(=O)N[C@H](Cc5ccc(O)cc5)C(=O)N[C@@H](C(=O)N[C@H](CCC(=O)O)C(=O)N[C@@H](C)C(=O)NCc5ccc(CC(=O)NCC(=O)N[C@H](Cc6c[nH]c7ccccc67)C(=O)N[C@H](Cc6c[nH]cn6)C(=O)N[C@H](CCCNC(=N)N)C(=O)N[C@@H](C)C(=O)NCc6ccc(CC(N)=O)cc6)cc5)[C@H](C)O)cc4)cc3)cc2)C(C)C)cc1 [KRAS-1-3] (5FAM-[dL][dP][dE][dS]F[X1]G[dV][dP][dR]A[X1][dP][dS][dE][dR]G[X1][dP][dK][dY][dR]F[X1][dR][dY][dT][dE]A[X1]G[dW][dH][dR]A-{NHCH2C6H4(4-CH2CONH2)})
Kd (K-Ras): 18 nM

CC(C)[C@H](NC(=O)[C@@H](Cc1ccc(O)cc1)NC(=O)[C@@H](Cc1c[nH]cn1)NC(=O)[C@H]1CCCN1C(=O)[C@@H](Cc1c[nH]c2ccccc12)NC(=O)c1ccc2c(c1)C(=O)OC21c2ccc(O)cc2Oc2cc(O)ccc21)C(=O)NCc1ccc(CC(=O)N2CCC[C@@H]2C(=O)N[C@H](CO)C(=O)NCC(=O)N[C@H](CO)C(=O)N[C@@H](C)C(=O)NCc2ccc(CC(=O)N3CCC[C@@H]3C(=O)N[C@H](CO)C(=O)N[C@H](CCC(=O)O)C(=O)N[C@H](CCCNC(=N)N)C(=O)NCC(=O)NCc3ccc(CC(=O)N4CCC[C@@H]4C(=O)N[C@H](CCCCN)C(=O)N[C@H](Cc4ccc(O)cc4)C(=O)N[C@H](CCCNC(=N)N)C(=O)N[C@@H](Cc4ccccc4)C(=O)NCc4ccc(CC(=O)N5CCC[C@@H]5C(=O)NCC(=O)N[C@H](CCCNC(=N)N)C(=O)N[C@H](Cc5c[nH]c6ccccc56)C(=O)NCC(=O)NCc5ccc(CC(=O)N[C@H](Cc6ccc(O)cc6)C(=O)N6CCC[C@@H]6C(=O)N[C@H](CCCNC(=N)N)C(=O)N[C@H](CCC(=O)O)C(=O)NCC(=O)NCc6ccc(CC(N)=O)cc6)cc5)cc4)cc3)cc2)cc1 [KRAS-1-5] (5FAM-[dW][dP][dH][dY]V[X1][dP][dS]G[dS]A[X1][dP][dS][dE][dR]G[X1][dP][dK][dY][dR]F[X1][dP]G[dR][dW]G[X1][dY][dP][dR][dE]G-{NHCH2C6H4(4-CH2CONH2)})
Kd (K-Ras): 75 nM

CC(C)C[C@H](NC(=O)[C@@H](CCC(=O)O)NC(=O)[C@H](NC(=O)[C@H]1CCCN1C(=O)[C@@H](CCC(=O)O)NC(=O)c1ccc2c(c1)C(=O)OC21c2ccc(O)cc2Oc2cc(O)ccc21)[C@H](C)O)C(=O)NCc1ccc(CC(=O)NCC(=O)N[C@@H](C(=O)N2CCC[C@@H]2C(=O)N[C@H](CCCNC(=N)N)C(=O)N[C@@H](C)C(=O)NCc2ccc(CC(=O)N3CCC[C@@H]3C(=O)N[C@H](CO)C(=O)N[C@H](CCC(=O)O)C(=O)N[C@H](CCCNC(=N)N)C(=O)NCC(=O)NCc3ccc(CC(=O)N4CCC[C@@H]4C(=O)N[C@H](CCCCN)C(=O)N[C@H](Cc4ccc(O)cc4)C(=O)N[C@H](CCCNC(=N)N)C(=O)N[C@@H](Cc4ccccc4)C(=O)NCc4ccc(CC(=O)N[C@H](CCCNC(=N)N)C(=O)N[C@H](Cc5ccc(O)cc5)C(=O)N[C@@H](C(=O)N[C@H](CCC(=O)O)C(=O)N[C@@H](C)C(=O)NCc5ccc(CC(=O)NCC(=O)N[C@H](Cc6c[nH]c7ccccc67)C(=O)N[C@H](Cc6c[nH]cn6)C(=O)N[C@H](CCCNC(=N)N)C(=O)N[C@@H](C)C(=O)NCc6ccc(CC(N)=O)cc6)cc5)[C@H](C)O)cc4)cc3)cc2)C(C)C)cc1 [KRAS-1-10] (5FAM-[dE][dP][dT][dE]L[X1]G[dV][dP][dR]A[X1][dP][dS][dE][dR]G[X1][dP][dK][dY][dR]F[X1][dR][dY][dT][dE]A[X1]G[dW][dH][dR]A-{NHCH2C6H4(4-CH2CONH2)})
Kd (K-Ras): 60 nM
